Measured values: US4352885A, “Preparation of a novel NADP linked alcohol-aldehyde/ketone oxidoreductase from thermophilic anaerobic bacteria for analytical and commercial use” (Wisconsin Alumni Research Foundation, priority 1980, dated 1982)

Legend:
[1] = biological target: T1, NADP linked alcohol dehydrogenase (secondary alcohol dehydrogenase activity) (Thermoanaerobacter brockii, UniProt P14941); test: Effects of metal ions, complexing agents and thiol reagents on the enzyme; type: biochemical, Thermoanaerobium brockii
T1 construct: The NADP linked alcohol dehydrogenase derived from T. brockii can be immobilized; made in house; host or cells: T. brockii itself (native host)
T1 sequence (P14941 1-352): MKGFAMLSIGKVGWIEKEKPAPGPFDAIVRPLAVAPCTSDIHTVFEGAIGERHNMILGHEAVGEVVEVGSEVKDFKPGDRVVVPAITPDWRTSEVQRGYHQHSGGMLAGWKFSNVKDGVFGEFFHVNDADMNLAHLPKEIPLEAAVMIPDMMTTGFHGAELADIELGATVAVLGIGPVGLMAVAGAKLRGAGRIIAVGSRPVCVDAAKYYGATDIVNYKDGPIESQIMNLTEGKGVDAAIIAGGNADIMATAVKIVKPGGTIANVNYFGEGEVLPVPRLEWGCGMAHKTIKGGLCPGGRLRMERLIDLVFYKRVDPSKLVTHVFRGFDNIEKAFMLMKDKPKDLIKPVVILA
Experimental: Metal ions, complexing agents and thiol reagents had the following effects.
Each of the above studies were performed at 40° C.

[2] = biological target: T2, NADP linked alcohol dehydrogenase (alcohol-aldehyde/ketone oxidoreductase) (Thermoanaerobacter brockii, UniProt P14941); test: Specific activity of partially purified NADP linked alcohol dehydrogenase with alcohols and carbonyl compounds (absorbance at 334 nm); type: biochemical, Thermoanaerobium brockii; settings: for Activity V/mg. at 60° C.: saturating substrate (0.2-0.5 M alcohol or ketone, 10 mM acetaldehyde), 0.5 mM NADP or 0.2 mM NADPH, 0.1 M Tris-Cl pH 7.8; for Reaction as substrate: tested as substrates; for Activity with the substance as coenzyme: as coenzymes instead of NADP/NADPH
T2 construct: of the T. brockii enzyme preparation with various alcohols and carbonyl compounds; made in house; host or cells: T. brockii itself (native host; partially purified enzyme)
T2 sequence (P14941 1-352): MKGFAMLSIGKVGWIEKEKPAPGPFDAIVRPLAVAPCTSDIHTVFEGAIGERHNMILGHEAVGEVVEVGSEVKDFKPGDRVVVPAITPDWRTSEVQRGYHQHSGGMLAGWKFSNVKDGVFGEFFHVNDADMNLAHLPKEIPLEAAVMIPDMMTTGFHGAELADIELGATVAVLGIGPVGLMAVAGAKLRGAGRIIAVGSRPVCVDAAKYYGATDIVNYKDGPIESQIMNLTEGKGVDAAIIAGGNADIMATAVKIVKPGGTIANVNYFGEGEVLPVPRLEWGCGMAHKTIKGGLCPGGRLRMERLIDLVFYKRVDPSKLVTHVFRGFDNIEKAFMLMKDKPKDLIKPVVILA

[3] = Thermostability and storage stability of the alcohol dehydrogenase; type: physicochemical, Thermoanaerobium brockii
Experimental: The immobilized alcohol dehydrogenase of example 2 was packed in a small flow cell which allowed amperometric measurement of NAPDH concentration, using a glossy carbon and Ag/Cl electrode with 0.8 volt potential difference. A soltuion containing 0.05 mM NADP and varying concentrations of sec. butanol 10-100 micro molar were passed through the cell and gave a signal which depended on the concentration of alcohol. Alternatively, solutions that contained 10 mM NADPH and varying concentrations of acetone produced signals which decreased linearly with increasing concentrations of acetone at 0-200 mM. Potassium phosphate buffer at 500 mM and pH 7.5 was used in these experiments. The immobilized enzyme system for measurement of ketones and alcohols was stable for 2 weeks at room temperature.

[4] = substrate: CC=O; test: Specific activity of partially purified NADP linked alcohol dehydrogenase with alcohols and carbonyl compounds (absorbance at 334 nm); type: biochemical, Thermoanaerobium brockii; settings: other: substrate concentration giving half-maximal velocity; pH 7.8; 40.0 °C
[5] = substrate: CCC(C)O; test: purified protein, by the assay type; settings: other: substrate concentration giving half-maximal velocity; pH 7.8; 40.0 °C

[Cl][Cu][Cl] [CuCl2]
Activation or inhibition by metal salts ([1]; 1 mM, 40° C.): no significant activation or inhibition

O=C1CCCCCC1 [Cycloheptanone]
Activity V/mg. at 60° C. [2]: 3.0 μ Mole/Min./Mg Protein

OC1CCCCC1 [Cyclohexanol]
Activity V/mg. at 60° C. [2]: 12.2 μ Mole/Min./Mg Protein

O=C1CCCCC1 [Cyclohexanone]
Activity V/mg. at 60° C. [2]: 6.2 μ Mole/Min./Mg Protein

O=C1CCCCCCC1 [Cyclooctanone]
Activity V/mg. at 60° C. [2]: 0 μ Mole/Min./Mg Protein

O=C1CCCC1 [Cyclopentanone]
Activity V/mg. at 60° C. [2]: 6.0 μ Mole/Min./Mg Protein

O=C(O)CN(CCN(CC(=O)O)CC(=O)O)CC(=O)O [EDTA, ethylenediamine-tetraacetic acid, reference compound]
Effect on thermostability of the enzyme ([3]; millimolar concentrations): did not decrease thermostability | Inhibition of activity by complexing agents [1]: did not significantly inhibit activity

C[C@H](O)C(=O)O [L-lactic acid]
Reaction as substrate [2]: did not react

CC(=O)C1CC1 [Methyl cyclopropyl ketone]
Activity V/mg. at 60° C. [2]: 0.5 μ Mole/Min./Mg Protein

[Cl-].[Cl-].[Mg+2] [MgCl2]
Activation or inhibition by metal salts ([1]; 1 mM, 40° C.): no significant activation or inhibition

NC(=O)c1ccc[n+]([C@@H]2O[C@H](COP(=O)([O-])OP(=O)(O)OC[C@H]3O[C@@H](n4cnc5c(N)ncnc54)[C@H](O)[C@@H]3O)[C@@H](O)[C@H]2O)c1 [NAD, reference compound]
Activity with the substance as coenzyme [2]: No activity

NC(=O)C1=CN([C@@H]2O[C@H](COP(=O)(O)OP(=O)(O)OC[C@H]3O[C@@H](n4cnc5c(N)ncnc54)[C@H](O)[C@@H]3O)[C@@H](O)[C@H]2O)C=CC1 [NADH, reference compound]
Activity with the substance as coenzyme [2]: No activity

NC(=O)c1ccc[n+]([C@@H]2O[C@H](COP(=O)([O-])OP(=O)(O)OC[C@H]3O[C@@H](n4cnc5c(N)ncnc54)[C@H](OP(=O)(O)O)[C@@H]3O)[C@@H](O)[C@H]2O)c1 [NADP, Nicotinamide adenine dinucleotide phosphate]
Apparent Michaelis constant KM (coenzymes) [2]: in the micromolar range

NC(=O)C1=CN([C@@H]2O[C@H](COP(=O)(O)OP(=O)(O)OC[C@H]3O[C@@H](n4cnc5c(N)ncnc54)[C@H](OP(=O)(O)O)[C@@H]3O)[C@@H](O)[C@H]2O)C=CC1 [NADPH, reference compound]
Apparent Michaelis constant KM (coenzymes) [2]: in the micromolar range

CCN1C(=O)C=CC1=O [NEM, N-ethylmaleimide]
Inactivation of the enzyme ([1]; 1 mM, slow (15 min.), 40° C.): inactivated the enzyme

O=C(O)c1cc[c]([Hg][Cl])cc1 [PCMB, parachloromercuricbenzoate]
Reaction of thiol reagent with the enzyme (inhibition) ([1]; 0.05 mM, 40° C.): reacted instantly

[Cl-].[Cl-].[Zn+2] [ZnCl2]
Activation or inhibition by metal salts ([1]; 1 mM, 40° C.): no significant activation or inhibition

O=S(=O)([O-])[O-].[Zn+2] [ZnSO4]
Reactivation of PCMB inhibited enzyme ([1]; 5 mM DTT, within a few minutes, 1 mM ZnSO4, 40° C.): necessary for complete reactivation

OCC(O)CO [glycerol]
Reaction as substrate [2]: did not react

c1cnc2c(c1)ccc1cccnc12 [orthophenanthroline]
inhibition at 2000 µM ([1]; 2 mM, 40° C., read-out: Inhibitory effect on secondary alcohol dehydrogenase activity): 15 to 20%

B1: NADP linked alcohol dehydrogenase (alcohol-aldehyde/ketone oxidoreductase) (Thermoanaerobacter brockii) (protein)
chain: MKGFAMLSIGKVGWIEKEKPAPGPFDAIVRPLAVAPCTSDIHTVFEGAIGERHNMILGHEAVGEVVEVGSEVKDFKPGDRVVVPAITPDWRTSEVQRGYHQHSGGMLAGWKFSNVKDGVFGEFFHVNDADMNLAHLPKEIPLEAAVMIPDMMTTGFHGAELADIELGATVAVLGIGPVGLMAVAGAKLRGAGRIIAVGSRPVCVDAAKYYGATDIVNYKDGPIESQIMNLTEGKGVDAAIIAGGNADIMATAVKIVKPGGTIANVNYFGEGEVLPVPRLEWGCGMAHKTIKGGLCPGGRLRMERLIDLVFYKRVDPSKLVTHVFRGFDNIEKAFMLMKDKPKDLIKPVVILA
notes: of the T. brockii enzyme preparation with various alcohols and carbonyl compounds; made in house; host or cells: T. brockii itself (native host; partially purified enzyme)
Km [4]: 150 µM | Km [5]: 500 µM

B2: immobilized enzyme system: T. brockii alcohol dehydrogenase immobilized on sepharose 4B-CnBr, packed in a flow cell (protein, UniProt P14941 1-352, looked up)
NADP-dependent isopropanol …: MKGFAMLSIGKVGWIEKEKPAPGPFDAIVRPLAVAPCTSDIHTVFEGAIGERHNMILGHEAVGEVVEVGSEVKDFKPGDRVVVPAITPDWRTSEVQRGYHQHSGGMLAGWKFSNVKDGVFGEFFHVNDADMNLAHLPKEIPLEAAVMIPDMMTTGFHGAELADIELGATVAVLGIGPVGLMAVAGAKLRGAGRIIAVGSRPVCVDAAKYYGATDIVNYKDGPIESQIMNLTEGKGVDAAIIAGGNADIMATAVKIVKPGGTIANVNYFGEGEVLPVPRLEWGCGMAHKTIKGGLCPGGRLRMERLIDLVFYKRVDPSKLVTHVFRGFDNIEKAFMLMKDKPKDLIKPVVILA
modifications: immobilized on CNBr-Sepharose 4B
Time stable ([3]; room temperature, immobilized on sepharose in flow cell): 2 weeks
